From patent publication US20120101093A1, “SUBSTITUTED IMIDAZO[1,2-A]PYRIDINE DERIVATIVES, PHARMACEUTICAL COMPOSITIONS, AND METHODS OF USE AS BETA-SECRETASE INHIBITORS” (HIGH POINT PHARMACEUTICALS, LLC, priority 2009, published 2012)

How the values were obtained:
BACE-1 enzyme = target: T1, BACE-1 enzyme (Homo sapiens, UniProt P56817); experiment: BACE Fluorescence Resonance Energy Transfer (FRET) Assay; assay type: biochemical; conditions: pH 4-4.5, 30 min pre-incubation, about 1.5 hours reaction
T1 construct: purchased R & D Systems 931AS
T1 sequence (P56817 46-457 limits assumed): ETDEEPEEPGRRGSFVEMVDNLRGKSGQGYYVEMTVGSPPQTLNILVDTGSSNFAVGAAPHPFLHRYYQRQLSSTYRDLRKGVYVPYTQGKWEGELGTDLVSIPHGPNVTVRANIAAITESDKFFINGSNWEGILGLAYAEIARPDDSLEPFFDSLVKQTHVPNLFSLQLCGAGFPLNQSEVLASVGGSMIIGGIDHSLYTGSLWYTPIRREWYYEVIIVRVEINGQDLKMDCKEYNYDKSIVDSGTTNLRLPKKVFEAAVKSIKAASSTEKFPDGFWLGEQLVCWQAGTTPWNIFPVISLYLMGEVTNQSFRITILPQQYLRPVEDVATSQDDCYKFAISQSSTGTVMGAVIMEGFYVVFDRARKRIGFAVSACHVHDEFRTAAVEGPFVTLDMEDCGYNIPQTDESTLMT
Procedure, shortened: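 Fluorescence (ex 540, em 585 nm) after ~1.5 h room-temperature cleavage of a quenched rhodamine peptide tracks BACE-1 activity. Enzyme and compound first sit 30 min in pH 4-4.5 acetate buffer with CHAPS, Triton X-100, EDTA, 7.5% DMSO. Values given as IC50 or % inhibition.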

[1] = tested on: Aβ1-40 secreted from HEK293 cells stably expressing wildtype human APP695 protein (HEK-APPwt cells); experiment: Aβ Cell Based Assay (Aβ1-40 secretion, ELISA); conditions: Homo sapiens, HEK293, 6 h, 6 hours incubation, reduction of Aβ1-40 secretion
Procedure, shortened: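 Cells in DMEM with 2% FBS exposed to ten compound concentrations for 6 h at 37 °C. Secreted Aβ1-40 in supernatant quantified by sandwich ELISA (82E1 capture, TMB, OD450). EC50 from percent inhibition, DAPT defining 100% inhibition, non-linear fit.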

| IC50 (BACE-1 enzyme) | SMILES | EC50 [1] |
| --- | --- | --- |
| 0.6 µM | Cc1cccc2nc(C(=O)Nc3nc4cc(-c5ccc(C(F)(F)F)c(Cl)c5)ccc4[nH]3)cn12 [Example 92, 5-Methyl-imidazo[1,2-a]pyridine-2-carboxylic acid [5-(3-chloro-4-trifluoromethyl-phenyl)-1H-benzoimidazol-2-yl]-amide] | 0.22 µM |
| 0.58 µM | Cc1cccc2nc(C(=O)Nc3nc4cc(-c5ccc(OC(C)C)cc5)ccc4[nH]3)cn12 [Example 97, 5-Methyl-imidazo[1,2-a]pyridine-2-carboxylic acid [5-(4-isopropoxy-phenyl)-1H-benzoimidazol-2-yl]-amide] | 1.78 µM |
| 0.27 µM | Cc1cc(-c2ccc3[nH]c(NC(=O)c4cn5c(C)cccc5n4)nc3c2)ccc1Cl [Example 99, 5-Methyl-imidazo[1,2-a]pyridine-2-carboxylic acid [5-(4-chloro-3-methyl-phenyl)-1H-benzoimidazol-2-yl]-amide] | 0.12 µM |
| 0.46 µM | Cc1cccc2nc(C(=O)Nc3nc4cc(-c5ccc(O)c(C(F)(F)F)c5)ccc4[nH]3)cn12 [Example 100, 5-Methyl-imidazo[1,2-a]pyridine-2-carboxylic acid [5-(4-hydroxy-3-trifluoromethyl-phenyl)-1H-benzoimidazol-2-yl]-amide] | 2.44 µM |
| 0.45 µM | Cc1cccc2nc(C(=O)Nc3nc4cc(-c5ccsc5)ccc4[nH]3)cn12 [Example 102, 5-Methyl-imidazo[1,2-a]pyridine-2-carboxylic acid (5-thiophen-3-yl-1H-benzoimidazol-2-yl)-amide] | 2.46 µM |
| 0.8 µM | CCOc1ccc(-c2ccc3[nH]c(NC(=O)c4cn5c(C)cccc5n4)nc3c2)cc1Cl [Example 106, 5-Methyl-imidazo[1,2-a]pyridine-2-carboxylic acid [5-(3-chloro-4-ethoxy-phenyl)-1H-benzoimidazol-2-yl]-amide] | 0.93 µM |
| 0.84 µM | CCOc1ccc(-c2ccc3[nH]c(NC(=O)c4cn5c(C)cccc5n4)nc3c2)cc1C [Example 107, 5-Methyl-imidazo[1,2-a]pyridine-2-carboxylic acid [5-(4-ethoxy-3-methyl-phenyl)-1H-benzoimidazol-2-yl]-amide] | 2.95 µM |
| 0.87 µM | Cc1cccc2nc(C(=O)Nc3nc4cc(-c5cccc(C(F)(F)F)c5O)ccc4[nH]3)cn12 [Example 109, 5-Methyl-imidazo[1,2-a]pyridine-2-carboxylic acid [5-(2-hydroxy-3-trifluoromethyl-phenyl)-1H-benzoimidazol-2-yl]-amide] | 4.85 µM |
| 0.4 µM | COc1c(-c2ccc3[nH]c(NC(=O)c4cn5c(C)cccc5n4)nc3c2)cccc1C(F)(F)F [Example 110, 5-Methyl-imidazo[1,2-a]pyridine-2-carboxylic acid [5-(2-methoxy-3-trifluoromethyl-phenyl)-1H-benzoimidazol-2-yl]-amide] | 0.75 µM |
| 0.43 µM | O=C(Nc1nc2cc(-c3cccc(C(F)(F)F)c3)ccc2[nH]1)c1cn2cc(F)ccc2n1 [Example 112, 6-Fluoro-imidazo[1,2-a]pyridine-2-carboxylic acid [5-(3-trifluoromethyl-phenyl)-1H-benzoimidazol-2-yl]-amide] | 1.94 µM |
| 0.37 µM | O=C(Nc1nc2cc(-c3cccc(C(F)(F)F)c3)ccc2[nH]1)c1cn2ccccc2n1 [Example 115, Imidazo[1,2-a]pyridine-2-carboxylic acid [5-(3-trifluoromethyl-phenyl)-1H-benzoimidazol-2-yl]-amide] | 1.43 µM |
| 0.54 µM | O=C(Nc1nc2cc(-c3cccc(OC(F)(F)F)c3)ccc2[nH]1)c1cn2ccccc2n1 [Example 117, Imidazo[1,2-a]pyridine-2-carboxylic acid [5-(3-trifluoromethoxy-phenyl)-1H-benzoimidazol-2-yl]-amide] | 3.67 µM |
